# Measured values reported in PubChem BioAssay (NCI).
# Where “and” joins values, the source holds several entries; their conditions need not be identical. Identical values can stand only once.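 Step 1: Grow cells in 96-well plates. Step 2: Expose to compound for 48 hours at 5 concentrations. Step 3: Interpolate endpoints linearly; if unreached, use highest concentration. The concentration for 50% growth inhibition is given as GI50. TGI marks complete inhibition of growth.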
# Assays:
# Assay in all cases: NCI anticancer screen, dose series, 48 h
# [1] = tested on: U251 CNS
# [2] = tested on: SK-MEL-5 melanoma
# [3] = tested on: SN12C renal
# [4] = tested on: MDA-MB-231 breast
# [5] = tested on: A549 NSCLC
# [6] = tested on: UO-31 renal
# [7] = tested on: SR leukemia
# [8] = tested on: UACC-257 melanoma
# [9] = tested on: OVCAR-3 ovarian
# [10] = tested on: LOX IMVI melanoma
compound,measurement,setting,value
COC(=O)c1ccc(C)cc1C1CN=NC12Cc1cccc(C)c1C2=O (stereo not given),TGI,[1],> 100 µM
same,TGI,[2],47.6 µM
same,TGI,[3],> 100 µM
same,TGI,[4],> 100 µM
same,TGI,[5],> 100 µM
same,TGI,[6],78.3 µM
same,TGI,[7],> 100 µM
same,TGI,[8],66 µM
same,TGI,[9],> 100 µM
same,TGI,[10],63.9 µM
COc1ccc(Cn2c(=O)c(OS(=O)(=O)C(F)(F)F)c(C)c3cc4ccccc4cc32)cc1,TGI,[1],> 100 µM
same,TGI,[2],> 100 µM
same,TGI,[3],> 100 µM
same,TGI,[4],> 100 µM
same,TGI,[5],> 100 µM
same,TGI,[6],> 100 µM
same,TGI,[7],> 100 µM
same,TGI,[8],> 100 µM
same,TGI,[9],> 100 µM
same,TGI,[10],> 100 µM
CCOC(=O)/C=C(/C(=O)OCC)n1cc(C)c(=O)n(Cc2cn(CCCCOC(C)=O)nn2)c1=O,TGI,[1],45.3 µM
same,TGI,[2],> 100 µM
same,TGI,[3],91.7 µM
same,TGI,[4],65.4 µM
same,TGI,[5],56.1 µM
same,TGI,[6],28.3 µM
same,TGI,[7],62.4 µM
same,TGI,[8],36.8 µM
same,TGI,[9],33.4 µM
same,TGI,[10],49.5 µM
Cc1c2cc[n+](C)cc2c(C)c2c1[nH]c1ccc(OCC(F)(F)F)cc12,TGI,[1],1.49 µM
same,TGI,[2],11.2 µM and 7.07 µM
same,GI50,[3],0.123 µM
same,TGI,[5],> 100 µM
same,GI50,[6],36.6 µM and > 100 µM
same,TGI,[6],> 100 µM
same,TGI,[7],23 µM and > 52.1 µM
same,GI50,[8],4.02 µM and 14.8 µM
same,TGI,[8],20 µM and > 100 µM
same,TGI,[9],25 µM and > 100 µM
same,GI50,[10],10.8 µM and 22.8 µM
same,TGI,[10],> 100 µM
C/C(=N\Nc1nc2cc(F)ccc2s1)c1ccccn1,TGI,[1],> 33.3 µM
same,TGI,[2],5.49 µM
same,TGI,[3],> 43.8 µM
same,TGI,[4],> 45.1 µM
same,TGI,[6],0.314 µM
same,TGI,[7],> 100 µM
same,TGI,[8],> 24.4 µM
same,TGI,[9],5.45 µM
C[C@]12CC[C@H]3[C@@H](CC=C4C[C@@H](O)CC[C@@]43C)[C@@H]1C/C(=C\c1ccc([N+](=O)[O-])cc1)[C@@H]2O,TGI,[2],23.2 µM
same,TGI,[3],22.9 µM
same,TGI,[4],22.6 µM
same,TGI,[5],25.1 µM
same,TGI,[6],24.4 µM
same,TGI,[7],> 100 µM
same,TGI,[8],59 µM
same,TGI,[9],37.1 µM
same,TGI,[10],> 100 µM
CC(C)=CCNc1ncnc2c1ncn2CCC(=O)O,TGI,[1],> 100 µM
same,TGI,[2],> 100 µM
same,TGI,[3],> 100 µM
same,TGI,[4],> 100 µM
same,TGI,[5],> 100 µM
same,TGI,[6],> 100 µM
same,TGI,[7],> 100 µM
same,TGI,[9],> 100 µM
same,TGI,[10],> 100 µM
CCOC(=O)c1cnc2n(c1=O)[C@H]1CCCC[C@@H]1N2,TGI,[1],> 100 µM
same,TGI,[2],> 100 µM
same,TGI,[3],> 100 µM
same,TGI,[4],> 100 µM
same,TGI,[5],> 100 µM
same,TGI,[6],> 100 µM
same,TGI,[8],> 100 µM
same,TGI,[9],> 100 µM
same,TGI,[10],> 100 µM
C(=Nc1ccc(-c2nc3ccccc3s2)cc1)c1cccs1,TGI,[1],> 100 µM
same,TGI,[2],> 100 µM
same,TGI,[3],> 100 µM
same,TGI,[5],> 100 µM
same,TGI,[6],> 100 µM
same,TGI,[7],> 100 µM
same,TGI,[8],> 100 µM
same,TGI,[9],> 100 µM
same,TGI,[10],> 100 µM
CC(C)(C)N=C1C(=O)C2(C)CCC1C2(C)C (stereo not given),TGI,[1],> 100 µM
same,TGI,[2],> 100 µM
same,TGI,[4],> 100 µM
same,TGI,[5],> 100 µM
same,TGI,[6],> 100 µM
same,TGI,[7],> 100 µM
same,TGI,[8],> 100 µM
same,TGI,[9],> 100 µM
same,TGI,[10],> 100 µM
